# Like-named read-outs stand apart in the source and are kept apart here. Non-standard residues stand in square brackets, D forms with d. Residues, ends and D or L forms follow the SMILES beside them. Primed or numbered codes have the meaning given here. *: point of attachment. DOTA = O=C(O)CN1CCN(CC(=O)O)CCN(CC(=O)*)CCN(CC(=O)O)CC1; DTPA′ = chelating agent complexing 111In or 64Cu; Tyr(3-I) = N[C@@H](Cc1ccc(O)c(I)c1)C(=O)O; Orn = NCCC[C@H](N)C(=O)O; Ahx = NCCCCCC(=O)O
# Columns and labels:
# [1] = molecular target: T1, caspase-3 (Homo sapiens, UniProt P42574); experiment: Caspase-3 mediated hydrolysis, enzyme kinetics by radio-HPLC; type: biochemical; conditions: caspase-3 290 pM, 37° C., pH 7.4
# T1 construct: purchased Cal Biochem
# T1 sequence (P42574 29-175 limits assumed): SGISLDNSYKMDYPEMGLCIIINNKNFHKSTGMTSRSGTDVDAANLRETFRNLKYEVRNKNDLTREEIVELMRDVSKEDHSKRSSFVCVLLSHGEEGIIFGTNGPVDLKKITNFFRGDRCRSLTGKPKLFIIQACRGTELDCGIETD
# T1 sequence (P42574 176-277 limits assumed): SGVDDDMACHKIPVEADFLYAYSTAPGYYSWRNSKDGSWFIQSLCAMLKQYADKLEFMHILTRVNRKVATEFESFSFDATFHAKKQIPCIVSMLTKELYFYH
# Experimental: However, the dimer readily converts back to single molecules under the high reducing conditions such as used to prepare the ^99mTc chelate. Kinetic analysis of caspase-3 activation with [^125I]LS370 using a radionuclide detector (radio-high-performance liquid chromatography) gave a KM and kcat of 15±3 1 μM and […], respectively.
# [^125I]LS370 was dissolved in caspase buffer {100 mM NaCl, 50 mM 4-(2-hydroxyethyl)-1-piperazineethanesulfonic acid, 10 mM DTT, 1 mM ethylenediaminetetraacetic acid, 10% glycerol, and 0.1% 3-[(3-cholamidopropyl) dimethylammonio]-1-propanesulfonate, pH 7.4} at concentrations varying from 2.5 to 20 μM. […] These solutions were allowed to react at 37° C. for 180 min and were sampled every 30 min. Substrate hydrolysis was monitored by radio-high-performance liquid chromatography (Vydac, C-18, 4.6×250 mm, 1 ml/m, A=H2O, 0.1% TFA, B=ACN, 0.1% TFA; 10-90% B, 30 min, linear gradient) of these time point samples. Comparison to a standard caspase-3 substrate (Ac-DEVD-pNA) and calculation of the enzyme kinetic parameters were carried out as previously described.
# [2] = system: MDA-MB-231 cells; experiment: Cell uptake and efflux studies; type: cell-based, human; conditions: for cell uptake: untreated MDA-MB-231 cells, 2 h postincubation at 37° C.
# From the text: The goals of the cell-uptake studies were to (1) assess any changes in the structure-activity relationship resulting from the modular and responsive probe design and (2) evaluate the retention of the iodine containing hydrophobic peptide moiety in treated and untreated cells. Metastatic human breast MDA-MB-231 cells were used to evaluate whether the amino acid sequence modulation would enhance internalization, and how the probe would respond (intracellular) postchemotherapy. In the untreated cells, there was a higher uptake (P<0.001) of [^125I]LS734 (3.6±0.5) than [^125I]LS370 (0.3±0.3) at 2 h postincubation at 37° C. (FIG. 22A). […] The amount of iodinated fraction released by the untreated and treated cells at 3 h (post 2 h incubation and removal of excess activity) was used as a measure of the efflux activity.
# MDA-MB-231 cells used for the uptake and efflux assay were grown on 24-well tissue culture plates until they were 80-90% confluent with […] cells per well. […] The experimental treatment group of cells was treated with 10 ng/ml of SN-38 (7-ethyl-10-hydroxy-camptothecin, Sigma Aldrich) for 24 h. Then, the SN-38 was removed, and the second chemotherapeutic drug, UCN-01 (Sigma Aldrich), was introduced at a concentration of […] in 0.1% BSA per well. At this point, respective radioactive solutions ([^125I]LS734 or [^125I]LS370, 0.02 μg per well; specific activities: [^125I]LS370-40×10^6 MBq/mmol; [^125I]LS734-10×10^6 MBq/mmol) were added to treated and control groups. The solutions were added drop-wise into the wells and gently mixed to ensure homogeneous distribution. The final volume per well was 240 μl, and the plates were incubated at 37° C. (5% CO2) for 2 h. After incubation, the supernatant (fraction 1) was collected, and the cells were washed twice with 250 μl of cold serum-free media. […] Fraction 2 represents the cell efflux, which is the amount of radioactivity released from cells after the 2 h uptake. […] The radioactivity in each fraction was measured in a well counter (Packard II gamma counter).
# [3] = Tissue biodistribution in tumor-bearing Balb/c mice; type: in vivo; conditions: female, Balb/c, mouse, iv, 0.185 MBq, total radioactivity, 1 h post injection; for tissue uptake at 1 h: thyroid
# Experimental: (§1) The structure-activity relationship was evaluated in vivo by performing a tissue biodistribution study in naive (FIG. 26) and tumor-bearing Balb/c mice (FIG. 23). […] The tumor/blood ratios for both [^125I]LS370 and [^125I]LS734 was 0.6±0.03. The tumor/muscle ratios were similar as well but higher than the tumor/blood ratios, [^125I]LS734 (2.2±0.1) and [^125I]LS370 (2.1±0.3). Thyroid uptake was 73±21 and 115±73 for [^125I]LS370 and [^125I]LS734, respectively.
# (§2) All animal studies were conducted according to guidelines on the humane care and use of laboratory animals under protocols approved by the Animal Studies Committee at Washington University School of Medicine. For tissue biodistribution studies, syngeneic breast tumor models were prepared via bilateral orthotopic implantation of luciferase-transfected 4T1 mouse mammary carcinoma cells (4T1luc, 5×10^5 cells per tumor) in the mammary fat pads of 6-week-old, female Balb/c mice (NCI, Frederick, Md., USA). Studies were conducted when the tumors reached about 3 mm maximum diameter (−10 days). Healthy female Balb/c mice (n=4 per time point) were anesthetized with 1-2% vaporized isoflurane and injected via tail vein with 0.185 MBq of [^125I]LS370 or [^125I]LS734 (specific activities: [^125I]LS370-40×10^6 MBq/mmol; [^125I]LS734-10×10^6 MBq/mmol). At 1 h post injection, mice were killed. Organs of interest were removed and blotted dry. The radioactivity was measured in a gamma counter (Packard II gamma counter). Diluted standard doses (1:100) were prepared and counted along with the samples. Data points were corrected for radioactive decay. The percent injected dose per gram of tissue (% ID/g) was calculated.
# [4] = system: 4T1luc tumors; experiment: as above; type: in vivo; conditions: at 1 h after tail vein injection
# Experimental: as §1, §2
# [5] = molecular target: T2, MMP9 (Homo sapiens, UniProt P14780); experiment: In vitro MMP9 experiment with ^64Cu-labeled peptide-functionalized gold NPs; type: biochemical
# Experimental: Once surface-functionalized with the peptide and PEG, an experiment was performed in PBS in order to characterize the ability of MMP9 to cleave the peptide present on the nanoparticle surface. In this experiment, ^64Cu was chelated to DTPA on the peptide attached to the NP. The suspension was incubated with MMP9 for 1.5 hours and then the supernatant solution was separated from the NPs by centrifugal filtration. […] To further confirm the presence of the cleaved peptide, high performance liquid chromatography (HPLC) was performed on the supernatant solutions, and co-registered UV and radioactive peaks associated with the radiolabeled peptide fragment were observed (FIG. 6).
# 1 mL of peptide-functionalized gold NPs was centrifuged, supernatant decanted, and resuspended in 0.1 M NH4OAc. 110 μCi ^64Cu, provided by the Washington University Cyclotron Facility, was added to the NP pellet and shaken at 45° C. for 1 hour. Radiolabeled NPs were purified from nonchelated ^64Cu by centrifugation. Then NP suspensions were incubated with 20 ng MMP9 for 1.5 hours, after which 450 μL PBS was added and supernatant was purified from the NPs by centrifugation filtration using a 10 k MW filter. Supernatant and NP pellets were counted for radioactivity in a PerkinElmer 1480 Automatic Gamma Counter.
# [6] = molecular target: T2, MMP9; experiment: In vitro MMP9 cleavage of ^111In from non-radioactive gold nanoparticle probe; type: biochemical
# Experimental: (§3) To further validate the specificity of the activation, an identical experiment as the one just described was performed with an ^111In-labeled non-radioactive gold nanoparticle probe, similar to a radioactive nanoparticle previously reported. An initial in vitro validation was performed; when incubated with MMP9 for 48 hours, 48% ^111In was cleaved from the nanoparticle compared to only 16% without MMP9. With this singly-labeled probe, an alternative in vivo ratiometric imaging approach was performed (FIG. 18A). Rather than compare the ratio between two gamma energy channels, uptake intensity ratios between the lungs and kidneys or bladder were quantified. Importantly, clear distinctions were observed between the MMP9 and control groups. […] Differences were also observed 5 hours after injection (FIG. 18C), where the bladder/lung ratio remained elevated in the MMP9-incubated condition (0.19±0.15) compared to the control (0.03±0.003).
# The dual-radiolabeled nanocrystal suspension was separated into 50 μL samples containing 20 ng MMP9 and incubated at 37° C. for 9 hours (along with control that was incubated without MMP9). 50 μL (˜80 μCi ^199Au and 40 μCi ^111In) was then intratracheally injected into C57 Black6 mice and two-channel SPECT imaging was performed as described above. […]
# [7] = molecular target: T2, MMP9; experiment: Organ ratiometric SPECT imaging (kidney/lung, bladder/lung) after MMP9 pre-incubation; type: in vivo, C57 Black6 mice
# Experimental: as §3
# The dual-radiolabeled nanocrystal suspension was separated into 50 μL samples containing 20 ng MMP9 and incubated at 37° C. for 9 hours (along with control that was incubated without MMP9). 50 μL (˜80 μCi ^199Au and 40 μCi ^111In) was then intratracheally injected into C57 Black6 mice and two-channel SPECT imaging was performed as described above. In another experiment, a similar protocol was performed with the non-radioactive gold NP core functionalized with an ^111In-labeled, MMP9-cleavable peptide. Briefly, 10 mL of 10 nm diameter gold nanoparticles (Sigma Aldrich) was centrifuged at 10 k g-force for 70 minutes, supernatant was removed, the pellet was resuspended in 1 mL of ultrapure water containing 2.2 mg mPEG-SH (MW=5000) and 1.0 mg pMMP9 peptide, and shaken overnight. Suspension was again centrifuged at 10 k g-force, supernatant removed, and the pellet was resuspended in 500 μL 0.1 M NH4OAc buffer (pH 5.5). Then 15 μL ^111InCl (5.23 mCi) was added and shaken at 45° C. for 90 minutes. Suspension was centrifuged at 10 k g-force for 90 minutes, supernatant removed, and the pellet containing 2.96 mCi was resuspended in 500 μL buffer. 50 μL aliquots with or without 10 ng MMP9 were prepared and shaken at 37° C. for 16 hours. 50 μL (˜230 μCi ^111In) was then intratracheally injected into C57 Black6 mice (n=4/group) and SPECT imaging was performed using the 245 keV channel immediately upon injection and 5 and 24 hours later.
# [8] = MMP9-incubated probe, immediately upon injection
# [9] = control probe without MMP9, immediately upon injection
# T2 sequence (P14780 94-707, species assumed): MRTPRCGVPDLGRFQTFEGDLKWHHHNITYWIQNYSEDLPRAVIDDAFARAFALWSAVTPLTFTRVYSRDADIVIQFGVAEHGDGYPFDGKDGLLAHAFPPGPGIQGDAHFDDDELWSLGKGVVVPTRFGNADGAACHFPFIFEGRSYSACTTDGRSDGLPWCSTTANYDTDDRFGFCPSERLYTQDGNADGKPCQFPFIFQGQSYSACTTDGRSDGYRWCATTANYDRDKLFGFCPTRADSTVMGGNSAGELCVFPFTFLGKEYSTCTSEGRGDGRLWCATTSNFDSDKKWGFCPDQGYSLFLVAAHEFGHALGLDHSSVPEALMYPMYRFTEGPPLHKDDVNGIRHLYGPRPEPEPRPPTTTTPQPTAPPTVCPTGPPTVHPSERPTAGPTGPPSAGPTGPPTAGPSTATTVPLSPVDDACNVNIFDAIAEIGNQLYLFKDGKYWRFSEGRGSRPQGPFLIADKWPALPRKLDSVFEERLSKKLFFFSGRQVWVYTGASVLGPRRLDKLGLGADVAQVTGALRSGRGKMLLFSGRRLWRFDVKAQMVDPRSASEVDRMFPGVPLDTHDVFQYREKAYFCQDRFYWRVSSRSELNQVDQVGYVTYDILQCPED
compound,measurement,setting,value
"CC(=O)N[C@@H](CC(=O)O)C(=O)N[C@@H](CCC(=O)O)C(=O)N[C@H](C(=O)N[C@@H](CC(=O)O)C(=O)Nc1ccc([N+](=O)[O-])cc1)C(C)C [Ac-DEVD (SEQ ID NO:2)-pNA, Ac-DEVD-pNA]",Km,[1],11 µM
same,kcat,[1],2.4 M/s
CC(=O)NCCCCCC(=O)N[C@@H](Cc1ccc(O)c(I)c1)C(=O)NCCCCCC(=O)N[C@@H](CC(=O)O)C(=O)N[C@@H](CCC(=O)O)C(=O)N[C@H](C(=O)N[C@@H](CC(=O)O)C(=O)NCC(=O)N[C@@H](CCCCN)C(=O)NCC(=O)N[C@@H](CS)C(N)=O)C(C)C [[^125I]LS370] (Ac-[Ahx][Tyr(3-I)][Ahx]DEVDGKGC-NH2),cell uptake,[2],0.3±0.3
same,tissue to tissue ratio at 1 h,"[3]; 4T1luc tumor / blood, read-out: tumor/blood ratio",0.6 ± 0.03
same,tissue to tissue ratio at 1 h,"[3]; 4T1luc tumor / muscle, read-out: tumor/muscle ratio",2.1 ± 0.3
same,tissue uptake at 1 h,[3],73 ± 21 %ID/g
CC[C@H](C)[C@H](NC(=O)[C@H](C)NC(=O)[C@H](CC(C)C)NC(=O)[C@H](Cc1ccc(O)c(I)c1)NC(C)=O)C(=O)NCCCCCC(=O)N1CCC[C@H]1C(=O)N[C@@H](C)C(=O)N[C@@H](CC(=O)O)C(=O)N[C@@H](CCC(=O)O)C(=O)N[C@H](C(=O)N[C@@H](CC(=O)O)C(=O)NCC(=O)N[C@@H](CCCNC(=N)N)C(=O)N[C@@H](CCCNC(=N)N)C(=O)N[C@@H](CCCNC(=N)N)C(=O)N[C@@H](CCCN)C(=O)N[C@@H](CCCNC(=N)N)C(=O)N[C@@H](CCCNC(=N)N)C(=O)N[C@@H](CCCCN)C(=O)N[C@@H](CCCCN)C(=O)N[C@@H](CCCNC(=N)N)C(=O)N[C@@H](CCCCNC(=O)CN1CCN(CC(=O)O)CCN(CC(=O)O)CCN(CC(=O)O)CC1)C(N)=O)C(C)C [[^125I]LS734] (Ac-[Tyr(3-I)]LAI[Ahx]PADEVDGRRR[Orn]RRKKRK(DOTA)-NH2),efflux activity: iodinated fraction released by untreated versus treated cells,"[2]; at 3 h (post 2 h incubation and removal of excess activity), treatment SN-38 then UCN-01",higher amount of activity was released from untreated cells compared to treated cells
same,cell uptake,[2],3.6±0.5
same,tissue uptake at 1 h,[3],115 ± 73 %ID/g
same,blood circulation,[4],circulated longer in blood as compared to [^125I]LS370
^64Cu-labeled nanoparticles ({DTPA′}-GPLGVRGKGYG[Ahx]C-NH2; not fully specified (residue 13); also: DTPA chelates 64Cu),radioactivity observed in the supernatant after incubation with MMP9,"[5]; […] incubation with MMP9, PBS, centrifugal filtration",23%
same,"radioactivity observed in the supernatant, control without MMP9","[5]; […], without MMP9",< 5%
"^111In-labeled non-radioactive gold nanoparticle probe ({DTPA′}-GPLGVRGKGYG[Ahx]C-NH2; not fully specified (residue 13); printed as Gly-Pro-Leu-Gly-Val-Arg-Gly-Lys-Gly-Tyr-Gly-Ahx-Cys; also: 111In chelated by DTPA, Cys thiol anchored to gold nanoparticle)",^111In cleaved from the nanoparticle,[6]; incubated with MMP9 for 48 hours,48%
same,^111In cleaved from the nanoparticle,[6]; without MMP9,16%
same,bladder/lung uptake ratio,"[7]; MMP9-incubated probe, 5 hours after injection",0.19±0.15
same,bladder/lung uptake ratio,[7]; [8],0.56±0.24
same,kidney/lung uptake ratio,[7]; [8],0.12±0.04
same,bladder/lung uptake ratio,"[7]; control probe without MMP9, 5 hours after injection",0.03±0.003
same,bladder/lung uptake ratio,[7]; [9],0.08±0.04
same,kidney/lung uptake ratio,[7]; [9],0.01±0.004

# Reference: patent US9974870B2, “Compositions and methods for treatment and imaging using nanoparticles” (Washington University, priority 2014, dated 2018)
